From patent publication US8772237B2, “Compositions and methods for counteracting effects of reactive oxygen species and free radicals” (Ischemix, Inc., priority 1999, dated 2014) come the findings set out here.

Ends that are not written are not given here.

Assay [1] deals with middle cerebral artery (MCA) permanent occlusion stroke model. Kind of assay: Permanent MCA 24-hour occlusion stroke model. The note with it: rat, in vivo. Type of assay: in vivo, Sprague-Dawley rats. On the procedure: The in vivo neuroprotective effects of CMX-9236 were investigated in both temporary and permanent occlusion stroke models in Sprague-Dawley rats using an intraluminal suture of the middle cerebral artery (MCA) occlusion method (Zea Longa et al., Stroke, 20: 84 (1989)). Briefly, a 4-0 silicone-coated suture was inserted through the right common carotid artery to block the MCA orifice. In the temporary model, CMX-9236 (6.2 mg/kg/hr) or vehicle was administered via the femoral vein at 30 minutes after the start of a 2-hour occlusion for a 4-hour continuous infusion; the rats were then reperfused by withdrawing the suture at […] after the MCA occlusion. All experiments were performed in a blinded and randomized manner, and rectal temperature was maintained at 37° C. The animals were sacrificed, and their brains were removed, sectioned into six 2-mm-thick coronal slices and stained with 2,3,5-triphenyltetrazolium chloride solution (Bederson et al., Stroke, 17:1304 (1986)) to visualize the extent of brain damage for the calculation of the corrected hemispheric infarct volumes (Nagasawa and Kogure, Stroke, 20:1037 (1989); Li et al., J. Cereb. Blood Flow Metab., 17:1132 (1997)). […] This represents a significant reduction of infarct size (35±5%, p=0.01, student t-test) for the CMX-9236-treated group in the temporary occlusion model. There was also a 58+11% improvement in the neurological scoring (Minematsu et al., Neurology, 42:235 (1992)) for the peptide-treated group versus controls at the end of 24 hours.
In the permanent occlusion stroke model, the blood flow to the MCA territory was blocked for the total 24-hour period. A continuous i.v. infusion (0.5 ml/hr) of the CMX-9236 peptide (2.04 mg/kg/hr) or vehicle was initiated at 30 minutes after occlusion for 6 hours, followed by a bolus i.v. infusion of CMX-9236 (4.0 mg/kg in 0.5 ml delivered over 10 minutes) or vehicle at 12 hours after occlusion. The corrected infarct volumes were 127.5±18 mm^3 versus 216±18 mm^3 for drug-treated animals and controls, respectively. This represents a significant decrease (41±5%, p=0.003, student t-test) in infarct size for the drug-treated group as compared to the vehicle-treated control group (n=10 per group) in the permanent model, indicating a substantial rescue of brain tissue. These findings indicate that CMX-9236 has neuroprotective properties post-trauma in vivo, reducing the brain damage generated by cerebral ischemia.

Assay [2] relates to transcription factor AP-1. Kind of assay: Electrophoretic mobility shift assay (EMSA) for AP-1 activation in primary rat neurons / cortical cultures. It is filed as cell-based. How it is done:
Nuclear extracts for electrophoretic mobility shift assays (EMSAs) were prepared as described previously (Adams et al., J. Leukocyte Biol., 62: 865-873 (1997)) using 1.0-2.0×10^7 cells per sample. All buffers were freshly supplemented with dithiothreitol (DTT, 0.5 mM), protease inhibitors: PMSF (0.5 mM), chymostatin, peptstatin-A, aprotinin, antipain, leupeptin (each at 1 μg/ml), and phosphatase inhibitors: NaF (10 mM), ZnCl2 (1 mM), sodium orthovanadate (1 mM), and sodium pyrophosphate (5 mM). Aliquots of the final dialyzates were stored at −80° C. and discarded after use.
AP-1 transcription factor activation was assayed using an electrophoretic mobility shift assay (EMSA), as described by Adams et al., J. Leukoc. Biol., 62:865-873 (1997)). Cultures of primary rat neurons (Cornell-Bell et al., Cell Calcium, 12: 185-204 (1991)) were stimulated for 3 hours with various concentrations (0, 1, 10, 100 ng/ml) of peptide CMX-9236. Nuclear extracts prepared as described above were separated by gel electophoresis on non-denaturing gels and subjected to the EMSA procedure. This EMSA used an AP-1 synthetic duplex probe (Angel, P., 1987, Cell 49:729-739) having the sequence 5′-[…] (SEQ ID NO:33) and its antisense copy (complement strand), which were end-labeled with P^32 using polynucleotide kinase and (γ-P^32)-ATP. For the EMSA reaction, the labeled probe (0.5 pmol) was mixed with 3 μg of nuclear extract protein in a solution containing 10 mM Tris-HCl, pH 7.5, 50 mM NaCl, 1 mM EDTA, 1 mM dithiothreitol, 5% glycerol, 0.02% β-mercaptoethanol, and 1 μg of poly-dI/dC (Pharmacia). Reaction mixtures were incubated at 25° C. for 20 minutes to allow complete complex formation by the duplex with its appropriate AP-1 protein. The mixture was then electrophoresed under non-denaturing conditions through 4% polyacrylamide gels in 0.5×TBE buffer (45 mM Trisma base, 45 mM boric acid, 1 mM EDTA). The gels were dried on 3 mm paper. Bands were visualized by autoradiography at −80° C. with one intensifying screen and quantified by laser densitometry. The upregulation of AP-1 and the activation and upregulation process of AP-1 was compared to control cultures.
Primary cortical cell cultures were grown to confluence and used in in vitro cultures for determining the effects of various representative peptide compounds on upregulation of AP-1. […] Extracts were prepared from the nuclei isolated from the primary culture homogenates, purified, and analyzed for the presence of specific transcription factors using the electrophoretic mobility shift assay (EMSA) method. The binding of ^32P-labeled duplex DNA probes specific for activator protein-1 (AP-1) or nuclear factor κB (NF-κB) was analyzed and quantified by autoradiography. After a 3-hour incubation of the cultures with 1 ng/ml of the peptide CMX-9236 there was a 15-fold increase of AP-1 relative to […] control cultures. […] Thus, a small peptide compound that is less than 20 amino acids long can simulate the properties of large growth factors such as NGF and BDNF, which exist as dimers of protein chains with molecular weights of 13,259 and 13,500, respectively.

Assay [3] concerns superoxide dismutase-1 (SOD-1) mRNA. Kind of assay: RT-PCR upregulation of SOD-1 mRNA in rat primary cortical cell cultures. It is filed as cell-based. The note with it: 10 ng/ml, 3 hours. On the procedure: The RT-PCR method (see, for example, Innis et al., PCR Protocols: A Guide to Methods and Applications, (Academic Press, San Diego, 1990)) was used to investigate the upregulation of the specific mRNA that codes for the enzyme superoxide dismutase (SOD).
(§1) Primary cortical cultures were obtained by growing newborn rat brain cortical cells in Delbecco's modified Eagle medium supplemented with 25 μg/ml of gentamycin and 10% fetal calf serum. The cells were isolated from the E-21 cortex of rat brain, plated at a density of 1×10^5 per ml and grown to confluence within four to five days in an atmosphere containing air and 5% CO2 at 37° C. as described in Cornell-Bell et al., Science, 247: 470-473 (1990) and Cell Calcium, 12: 185-204 (1991). Cultures were grown in 20 ml flasks as a monolayer and then exposed to various concentrations of peptides for studies of the effects of peptides on upregulation of genes for SOD and CAT and on the transmigration of transcription factor AP-1 to cell nuclei.
Primary cultures of rat brain cortical cells were incubated with 100 ng/ml of peptide compound CMX-9236 for durations of 0 to 48 hours. mRNA was isolated from the cytoplasmic fraction of lysed cells according to standard methods (Angel et al., Cell 49:729-739, 1987). The RNA was incubated according to the RT-PCR protocol with two strands, 20 nucleotides long, one for the sense and one from the antisense strand. The sequences were selected to be unique for superoxide dismutase-1 (SOD-1), and to span one intron segment. […] The sequence of the two probe segments of the oligo dT segments for SOD are as follows: anti-sense strand, […] (SEQ ID NO:29), and sense strand, […] (SEQ ID NO:30). These span a sequence of 208 base pairs (bp) on the primary SOD sequence. The mixture was then treated with reverse transcriptase to obtain the cDNA according to standard PCR methods. The cDNA was then analyzed by electrophoresis and separated according to sequence lengths on a non-denaturing 5% polyacrylamide gel. The electrophoretically separated molecules were treated with ethidium bromide to stain double-stranded DNA fragments. These were visualized by ultraviolet illumination and photographed. The gels were then analyzed by a laser scanning fluorescence detector to quantitate the amount of messenger RNA for the extent of upregulation of SOD message and its time course of synthesis as a function of stimulation by CMX-9236. Similar methods of analysis were used for other peptides.

Another assay deals with catalase (CAT) protein. Kind of assay: Western immunoblot of CAT protein in rat primary cortical cultures. The note with it: Dose 28 pmol/ml, 5 hours at 37° C. Type of assay: cell-based. How it is done:
(§2) Tissue culture experiments were carried out using primary cultures of rat brain cortical cells as previously described above in Example 2. Primary cultures from embryonic rat brain isolated at E-21 (21 day embryos) and incubated for five hours with various doses: 1, 10, 100 ng/ml of CMX-99672. Cytoplasmic proteins were isolated and analyzed for upregulation of SOD and CAT by Western immunoblots as described above. […] The Western blot was scanned to quantify the fold-increase in SOD production in cell cultures treated with the CMX-99672 peptide compound.
Representative peptide compounds were tested at various doses and compared for their ability to upregulate expression of genes for SOD and/or CAT in rat primary cortical cultures basically as described above. Cultures were incubated with a peptide compound for 5 hours at 37° C. Cytoplasmic protein fractions were prepared as described above. Cytoplasmic proteins were separated by gel electrophoresis and analyzed by Western immunoblots using antisera to SOD and CAT, respectively (Rockland, Inc., Gilbertsville, Pa.).

For assay [4], the system named is superoxide dismutase (SOD) protein. Put plainly: Western immunoblot of SOD protein in rat brain primary cortical cultures. Type of assay: cell-based. The note with it: for SOD: 5 hours at 37° C. On the procedure: as §1, with “nuclei. […]” for “nuclei.”
as §2
Representative peptide compounds were tested at various doses and compared for their ability to upregulate expression of genes for SOD and/or CAT in rat primary cortical cultures basically as described above. Cultures were incubated with a peptide compound for 5 hours at 37° C. Cytoplasmic protein fractions were prepared as described above. Cytoplasmic proteins were separated by gel electrophoresis and analyzed by Western immunoblots using antisera to SOD and CAT, respectively (Rockland, Inc., Gilbertsville, Pa.). […]

The test system of another assay is catalase (CAT) mRNA. Kind of assay: RT-PCR upregulation of catalase (CAT) mRNA in primary rat cortical cultures. It is filed as cell-based. The settings on record: 10 ng/ml, 3 hours. An excerpt: Peptide compounds of the invention may also upregulate mRNA for catalase (CAT). Experiments using the RT-PCR methods to detect upregulation of CAT mRNA in primary rat cortical brain cultures treated with various representative peptide compounds, i.e., CMX-9236, CMX-9963, and CMX-9967. The catalase probe duplex consisted of a sense primer having the sequence […] (SEQ ID NO:31) and antisense primer having the sequence […] (SEQ ID NO:32) flanking a 95 bp region of the CAT DNA.
Primary rat brain cortical cell cultures were incubated with 100 ng/ml of the peptide compound CMX-9236 for 0, 0.5, 1, 2, 3, 6, 12, 24, and 48 hours. […] The upregulation of CAT mRNA was maximal at 3 hours after the addition of the peptide compound, and it decreased back to control levels at 48 hours. GAPDH was the internal standard in these experiments. […] A 13-fold increase in CAT mRNA levels was observed (over control) of CAT mRNA occurred when primary rat brain cortical cultures were incubated with 100 ng/ml of CMX-9236 for 3 hours.

Assay [5] concerns middle cerebral artery (MCA) permanent occlusion stroke model. Put plainly: Permanent MCA 24-hour occlusion stroke model. Type of assay: in vivo, Sprague-Dawley rats. The note with it: Dose 0.05 mg/hr.

In the case of “KKETLQFR [CMX-8933, described in U.S. Pat. No. 5,545,719]”, the “neuroprotective effect in permanent MCA assay (in words)” value in assay [1] is recorded as “positive neuroprotective effect”. Moreover, the “activation / upregulation of AP-1 (in words)” value in assay [2] is on record as “upregulated AP-1”.

For KKQYKLGSKTGPGQ [CMX-9901], the “neuroprotective effect in permanent MCA assay (in words)” value in assay [1] was “positive neuroprotective effect”. Besides, the “activation / upregulation of AP-1 (in words)” value in assay [2] is “upregulated AP-1”.

For “[Ac]-Asp Gly Asp Gly Asp Phe Ala (Ac-DGDGDFA) [CMX-9963]”, the “maximum increase of SOD-1 mRNA” value in assay [3] is “around 10 fold”. The same substance returned a CAT in the assay with catalase (CAT) protein of 700 % Control. The substance further yielded an SOD in assay [4] (Dose 6.7 pmol/ml) of 1873 % Control. In addition, the “maximum increase of CAT mRNA” value in the assay on catalase (CAT) mRNA is on record as ~7 fold.

In the case of [Ac]-Asp Gly Asp [CMX-9967], the “maximum increase of SOD-1 mRNA” value in assay [3] is recorded as 6 fold. In the assay with catalase (CAT) protein, this substance returned a CAT of 200 % Control. In assay [4] (Dose 28 pmol/ml), this substance came in with an SOD of 1220 % Control. Besides, the “fold-increase in SOD-1 protein (intensity of antibody binding)” value in assay [4] (cells treated 5 hours with 10 and 100 ng/ml) is recorded as ≥ 20 fold. Further, the “maximum increase of CAT mRNA” value in the assay on catalase (CAT) mRNA worked out at 6 fold. In assay [5], the “Percent Neurological Rescue” value came to 40 ± 10% and the “Percent Rescue (percent decrease in infarct size vs vehicle controls)” value came out at 20 ± 6%.
